Legend:
Format in all cases: cell-based
[1] = system: Ag5 specific spleen cells from BALB/c mice; experiment: In vitro proliferation assay, spleen cells of Ag5-immunized BALB/c mice; settings: for Stimulation Index BALB/c: spleen cells from mice immunized with rAg5, blank 3970 cpm
Description: (§1) FIG. 4. Stimulation index profile of BALB/c mice spleens after 4 immunizations with natural (n)-Ag5. In vitro proliferation assays were performed with peptides at three concentrations: 1×10^-5 M (open bar), 1.25×10^-6 M ("uphill" hatch), and 1.56×10^-7 M ("downhill" hatch). The corresponding concentrations of recombinant antigen 5 control were 1.0×10^-6 M, 1.25×10^-7, and 1.56×10^-8 M. The blank was 2200 cpm.
as §1, with “5.” for “4.”, “recombinant (r)-Ag5.” for “natural (n)-Ag5.”, “Antigen” for “antigen”, “5” for “5 control”, “4700” for “2200”
FIG. 6. […] In vitro proliferation assays were performed with peptides at three concentrations: 1×10^-5 M (open bar), 1.25×10^-6 M ("uphill" hatch), and 1.56×10^-7 M ("downhill" hatch). The corresponding concentrations of recombinant Antigen 5 were 1.0×10^-6 M, 1.25×10^-7, and 1.56×10^-8 M. […]
(§2) The peptides of the invention can be tested in a proliferation assay for T cell responses. Generally, lymphocytes from a sensitized host are obtained. The host can be a mouse that has been immunized with a vespid venom antigen 5, or with a crossreactive protein, such as testes specific protein. Using techniques that are well known in the art, T lymphocyte response to the peptide can be measured in vitro. In a specific embodiment, infra, T cell responses are detected by measuring incorporation of ^3 H-thymidine, which increases with DNA synthesis associated with proliferation. Cell proliferation can also be detected using an MTT assay [Mossman, J. Immunol. Methods, 65:55-63,(1983); Niks and Otto, J. Immunol. Methods, 130:140-151 (1990)]. Alternatively, lymphokine production assays can be practiced according to the present invention. In one embodiment, lymphokine production can be assayed using immunological or co-stimulation assays [see, e.g., Fehlner et al., J. Immunol., 146:799 (1991)] or using the ELISPOT technique [Czerkinsky, et al., J. Immunol. Methods, 110:29 (1988)]. Alternatively, mRNA for lymphokines can be detected, e.g., by amplification [see Brenner, et al., Biotechniques, 7:1096 (1989)] or in situ hybridization [see, e.g., Kasaian and Biron, J. Immunol., 142:1287 (1989)]. Of particular interest are those individuals whose T cells produce lymphokines associated with IgE isotype switch events, e.g., IL-4 and IL-5 [Purkeson and Isakson, J. Exp. Med., 175:973-982 (1992)]. Also of interest are the peptide fragments of the vespid venom antigen 5 that contain epitopes recognized by T cells involved in IgE switch events. […]

[2] = system: r-Ag5 specific spleen cells from mice of different strains; experiment: Summary of proliferation indices across mouse strains; settings: four strains BALB/c, ASW/Sn, C3H/He, P/J, C57B1/6 excluded
Excerpt: Summary of proliferation indices of r-Ag5 specific spleen
cells from mice of different strains on stimulation with the
dominant T cell epitope peptides^1
^1 Dominant T cell epitopes are defined as those peptides which showe
stimulation indices of ≥4 in at least one of 5 strains of mice
The present Example defines indices of 4 or greater for proliferation of Ag5- specific cells as containing a T cell epitope of Ag5. With this definition, the data in FIGS. 3-13 for mice of 5 strains with different haplotypes would indicate that the T cell epitopes of Ag5 are distributed throughout the entire molecule. As C57B1/6 mice is a poor responder, its data are excluded in the following comparison.
The data in Table 4 indicate that 14 peptides contain T cell epitopes of Ag5. Three of these peptides are recognized by three of the four strains tested, five of them by two strains and the remaining six by only one strain. […] They are peptides 1, 2, 5, 6, 9, 15, 20 and 18. […] This is particularly apparent for peptides 6, 20, and 18.

[3] = system: r-Ag5 specific spleen cells from C57B1/6 mice; experiment: In vitro proliferation assay, spleen cells of r-Ag5-immunized C57B1/6 mice; settings: spleen cells from mice immunized 5 times with rAg5; blank 1050 cpm
Description: (§3) FIG. 14. Stimulation index profile of CS7B1/6 mice spleens after 5 immunizations with r-Ag5. In vitro proliferation assays were performed with peptides at three concentrations: 1×10^-5 M (open bar), 1.25×10^-6 M ("uphill" hatch), and 1.56×10 ^-7 M ("downhill" hatch). The corresponding concentrations of recombinant Antigen 5 were 1.0×10^-6 M, 1.25×10^-7, and 1.56×10^-8 M. The blank was 1050 cpm.
(§4) The peptides of the invention can be tested in a proliferation assay for T cell responses. Generally, lymphocytes from a sensitized host are obtained. The host can be a mouse that has been immunized with a vespid venom antigen 5, or with a crossreactive protein, such as testes specific protein. Using techniques that are well known in the art, T lymphocyte response to the peptide can be measured in vitro. In a specific embodiment, infra, T cell responses are detected by measuring incorporation of ^3 H-thymidine, which increases with DNA synthesis associated with proliferation. Cell proliferation can also be detected using an MTT assay [Mossman, J. Immunol. Methods, 65:55-63,(1983); Niks and Otto, J. Immunol. Methods, 130:140-151 (1990)]. […] Alternatively, mRNA for lymphokines can be detected, e.g., by amplification [see Brenner, et al., Biotechniques, 7:1096 (1989)] or in situ hybridization [see, e.g., Kasaian and Biron, J. Immunol., 142:1287 (1989)]. […]

[4] = system: r-Ag5 specific spleen cells from ASW/Sn mice; experiment: In vitro proliferation assay, spleen cells of r-Ag5-immunized ASW/Sn mice; settings: spleen cells from mice immunized 5 times with rAg5; blank 5640 cpm
Description: as §3, with “11.” for “14.”, “ASW/sn” for “CS7B1/6”, “1.56×10^-7” for “1.56×10 ^-7”, “5640” for “1050”
as §2

[5] = system: Tpx-C primed spleen cells from BALB/c mice; experiment: In vitro proliferation assay, Tpx-C primed spleen cells; settings: BALB/c mice after 4 immunizations with r-fragment Tpx-C (residue 101-163)
Description: FIG. 16. Stimulation index profile of BALB/c mice spleen cells after 4 immunizations with Tpx-C. Stimulation was tested with peptide or protein at three different concentrations: Open bars--1×10^-5 M peptide, 5×10^-6 M Frag C or Tpx-C; "uphill" hatch--1.25×10^-6 M peptide; 6.25×10^-7 M Frag C or Tpx-C; "downhill" hatch--1.56×10^-7 M peptide, 7.8×10^-8 M Frag C, Tpx-C: and stippled--9.75×10^-9 M Frag-C or Tpx-C. The blank was 5110 cpm.
as §2

[6] = system: r-Ag5 specific spleen cells from C3H/He mice; experiment: In vitro proliferation assay, spleen cells of r-Ag5-immunized C3H/He mice; settings: spleen cells from mice immunized 5 times with rAg5; blank 3130 cpm
Description: as §3, with “13.” for “14.”, “C3H/He” for “CS7B1/6”, “1.56×10^-7” for “1.56×10 ^-7”, “3130” for “1050”
as §4

[7] = system: Tpx-N primed spleen cells from BALB/c mice; experiment: In vitro proliferation assay, Tpx-N primed spleen cells; settings: BALB/c mice after 4 immunizations with r-fragment Tpx-N (residue 14-106)
Description: FIG. 15. Stimulation index profile of BALB/c mice spleen cells after 4 immunizations with Tpx-N. Stimulation was tested with peptide or protein at three different concentrations: Open bars--1.0×10^-5 M peptide or Frag IN, 2.5×10^-6 M Tp X-N; "uphill" hatch--1.25×10^-6 M peptide or Frag IN. 3.13×10^-7 M, Tpx-N; "downhill" hatch--1.5×10^-7 M peptide and Frag IN, 3.91×10^-8 M Tpx-N; and stippled --1.96×10^-8 M Frag IN, 4.89×10^-9 M Tpx-N. The blank was 7270 cpm.
as §2, with “(1992)].” for “(1992)]. Also of interest are the peptide fragments of the vespid venom antigen 5 that contain epitopes recognized by T cells involved in IgE switch events.”

GIHTLCKFGTSMKPNCGRNV [Peptide 2, white face hornet antigen 5 form 2, residue 11-30]
Stimulation Index BALB/c [1]: 2.9
recognition by more than one mouse strain (stimulation indices of ≥4) [2]: recognized by two or three strains of mice
recognition by more than one mouse strain (stimulation indices of ≥4) ([2]; listed as SEQ ID NO:9): dominant in more than one strain of mouse
Stimulation Index C57B1/6 [3]: 1.9
Stimulation Index ASW/Sn [4]: 2.2

fragment C: recombinant C-terminal fragment of hornet antigen 5, residue 151-204 (NPKKGTMGDNNFSKVGHYTQMVWGKTKEIGCGSVKYIENNWHTHYLVCNYGPAG)
stimulation indices, Tpx-C primed spleen cells (FIG. 16) [5]: 9
stimulation indices, Tpx-C primed spleen cells (FIG. 16) ([5]; listed as r-fragment C): responded equally well

NNYCKIKCRKGIHTLCKFGT [Peptide 1, white face hornet antigen 5 form 2, residue 1-20]
stimulation indices (FIG. 4-6 together) ([1]; BALB/c mice immunized 4 times with n-Ag5 or with r-Ag5): ≥ 4
Stimulation Index BALB/c [1]: 8.6
Stimulation Index C3H/He [6]: 2.4
recognition by more than one mouse strain (stimulation indices of ≥4) [2]: recognized by two or three strains of mice
recognition by more than one mouse strain (stimulation indices of ≥4) ([2]; listed as SEQ ID NO:8): dominant in more than one strain of mouse
Stimulation Index C57B1/6 [3]: 2.5
Stimulation Index ASW/Sn [4]: 1.9

B1: Tpx-C: recombinant fragment of mouse testis protein Tpx, residue 101-163 (protein)
chain: MSTDPTLWSTVIQSWYNENEDFVYGVGAKPNSAVGHYTQLVWYSSFKIGCGIAYCPNQDNLKY
stimulation indices, Tpx-C primed spleen cells (FIG. 16) [5]: greater than 15

B2: Tpx-N: recombinant fragment of mouse testis protein Tpx, residue 14-106 (protein)
chain: LLRSPLTEGKDPDFTSLLTNQLQVQREIVNKHNELRRSVNPTGSDILKMEWSIQATTNAQKWANKCILEHSSKDDRKINIRCGENLYMSTDPT
stimulation indices, Tpx-N primed spleen cells (FIG. 15) [7]: greater than 6

B3: fragment IN: recombinant N-terminal fragment of hornet antigen 5, residue 1-114 (protein)
chain: PIINLSFGEANNYCKIKCSRGIHTLCKFGTSMKPNCGSKLVKVHGVSNDEKNEIVNRHNQFRQKVAKGLETRGNPGPQPPAKNMNVLVWNDELAKIAQTWANQCSFGHDQCRNT
stimulation indices, Tpx-N primed spleen cells (FIG. 15) [7]: greater than 6
stimulation indices, Tpx-N primed spleen cells (FIG. 15) ([7]; listed as r-fragment IN): responded equally well
